According to patent US20060211887A1, “Phosphate salts of 6-dimethylaminomethyl-1-(3-methoxyphenyl)-1,3-dihydroxy-cyclohexane compounds” (priority 2005, published 2006):
Where a name gives a salt, the structure may show the parent alone.

Legend:
Assay type in all cases: physicochemical
[1] = Storage of the amorphous phosphate salt at 75% r.h.; details: crystallized after 8 days
From the text: The amorphous phosphate salt crystallized after 8 days on storage at a relative atmospheric humidity of 75% r.h. and formed form A.

[2] = DVS (dynamic vapor sorption) experiment on the amorphous phosphate salt
From the text: The amorphous phosphate salt of I crystallized during a DVS (dynamic vapor sorption) experiment at a relative atmospheric humidity of 45% r.h.

[3] = Drying of form B of the phosphate salt in vacuo, physical form checked by X-ray powder diffractometry, thermal analysis and 1H NMR
Protocol: The form B was dried for 13 hours at 40° C. in vacuo.
The form B was dried for 24 hours at 40° C. in vacuo.
Form B was dried at 68° C. in a drying cabinet in vacuo for 3 days.

[4] = Storage at defined relative atmospheric humidity (approx. 75% or 95%, then approx. 4%) with thermogravimetric analysis, weighing and X-ray powder diffractometry; details: then approx. 4% approx. 6 h; for Form after: X-ray powder diffractometry
From the text: Storage of the hydrochloride salts, which are not according to the invention (identified H1 to H3 in the following examples of compounds; for the synthesis see the subsequent experimental part), at room temperature over saturated sodium chloride solution results in a relative atmospheric humidity of approx. 75% (±5%). Storage of the samples at room temperature over saturated potassium sulfate solution results in a relative atmospheric humidity of approx. 95% (±5%).
Storage of the samples at room temperature over drying beads (blau+, Engelhardt, Nienburg) results in a relative atmospheric humidity of approx. 4% (±5%).
The samples were stored at approx. 75% relative atmospheric humidity for approx. 8.5 days. The samples were then stored at a relative atmospheric humidity of approx. 4% for a further approx. 6 h.
They were analyzed for their loss in weight by means of thermogravimetric analyses (amount of sample approx. 5-20 mg, heating rate approx. 10 K/min, heating range from approx. 25° C. to approx. 240° C.).
The approximate difference in the moisture content (in percentage points; % pt) from after the storage to before the particular storage step is stated.
In addition, the percentage change in the total weight of the sample occurring in the respective storage step was determined by weighing (“laboratory”).
The crystalline form was determined by means of X-ray powder diffractometry.
The samples were stored at approx. 95% relative atmospheric humidity for approx. 8.5 days. The samples were then stored at a relative atmospheric humidity of approx. 4% for a further approx. 6 h.
The approximate difference in the moisture content (in percentage points; % pt) from after the storage to before the storage is stated.
The samples were stored at approx. 75% relative atmospheric humidity for approx. 7 days. The samples were then stored at a relative atmospheric humidity of approx. 4% for a further approx. 2.5 days.
The approximate difference in the moisture content (in percentage points; % pt) from after the storage step to before the storage is stated.
The samples were stored at approx. 95% relative atmospheric humidity for approx. 7 days. The samples were then stored at a relative atmospheric humidity of approx. 4% for a further approx. 7 days.
Storage of the phosphate salts I-P according to the invention, called samples in the following, at room temperature over saturated sodium chloride solution results in a relative atmospheric humidity of approx. 75 (±5) % . Storage of the samples at room temperature over saturated potassium sulfate solution results in a relative atmospheric humidity of approx. 95 (±5) %.
Storage of the samples at room temperature over drying beads (blau+, Engelhardt, Nienburg) results in a relative atmospheric humidity of approx. 4 (±5) %.
The samples were stored at approx. 75 (±5) % relative atmospheric humidity for approx. 8.5 days. The samples were then stored at a relative atmospheric humidity of approx. 4 (±5) % for a further approx. 6 h.
The samples were stored at approx. 95 (±5) % relative atmospheric humidity for approx. 8.5 days. The samples were then stored at a relative atmospheric humidity of approx. 4 (±5) % for a further approx. 6 h.
The samples were stored at approx. 75 (±5) % relative atmospheric humidity for approx. 7 days. The samples were then stored at a relative atmospheric humidity of approx. 4 (±5) % for a further approx. 20 h.
The samples were stored at approx. 95 (±5) % relative atmospheric humidity for approx. 7 days. The samples were then stored at a relative atmospheric humidity of approx. 4 (±5) % for a further approx. 20 h.
Sample P3 was kept in the laboratory for approx. 55 minutes under ambient conditions before the second storage step.
The interpretation of the specified data is explained again in more detail by the example of the data for P1 given in the preceding Table 8:
Storage of 1: • first storage step: 95% atmospheric humidity • second storage step: 4% atmospheric humidity […]

[5] = approx. 75% r.h. approx. 8.5 days
[6] = approx. 95% r.h. approx. 8.5 days

Q: For `COc1cccc([C@@]2(O)C[C@H](O)CC[C@@H]2CN(C)C)c1` (racemic) [amorphous phosphate salt of I, (1RS,3RS,6RS)-6-dimethylaminomethyl-1-(3-methoxyphenyl)-cyclohexane-1,3-diol], which “Form formed on storage” value [1] is on record?
A: form A

Q: What about the “Relative atmospheric humidity at which the amorphous salt crystallized” value [2] of the same compound?
A: 45 % r.h.

Q: What does the source list for `COc1cccc([C@@]2(O)C[C@H](O)CC[C@@H]2CN(C)C)c1` (racemic) [form B, (1RS,3RS,6RS)-6-dimethylaminomethyl-1-(3-methoxyphenyl)-cyclohexane-1,3-diol]?
A: Change in the physical form on drying ([3]; 68° C. in a drying cabinet in vacuo for 3 days): converted into amorphous material; Change in the physical form on drying ([3]; 13 hours at 40° C. in vacuo): no changes in the physical form were observed; Change in the physical form on drying ([3]; 24 hours at 40° C. in vacuo): no changes in the physical form were observed

Q: For `COc1cccc([C@@]2(O)C[C@H](O)CC[C@@H]2CN(C)C)c1` (racemic) [form A, (1RS,3RS,6RS)-6-dimethylaminomethyl-1-(3-methoxyphenyl)-cyclohexane-1,3-diol], which “Stability of the hydrate formed during the desorption” value ([2]; desorption) is on record?
A: remained stable during the desorption

Q: What does the source list for `COc1cccc(C2(O)CC(O)CCC2CN(C)C)c1` (stereo not drawn) [Sample H2, 6-dimethylaminomethyl-1-(3-methoxyphenyl)-1,3-dihydroxy-cyclohexane]?
A: % pt (difference in the moisture content, thermogravimetry, after vs before storage) [4, 5]: −2.85 % pt; Laboratory/% (percentage change in total weight by weighing) [4, 5]: +2.61%; Form after ([4]; approx. 75% relative atmospheric humidity approx. 8.5 days): form B, further; % pt (difference in the moisture content, thermogravimetry) [4, 6]: −4.95 % pt; Laboratory/% (percentage change in total weight by weighing) [4, 6]: +4.88%; Form after [4, 6]: form B, further
